Results taken from ChEMBL document CHEMBL5291721, “A preclinical secondary pharmacology resource illuminates target-adverse drug reaction associations of marketed drugs” (Nat Commun, 2023).

Key:
D(1A) dopamine receptor = D(1A) dopamine receptor (Homo sapiens, UniProt P21728)
Thromboxane A2 receptor [1] = target: T1, Thromboxane A2 receptor (Homo sapiens, UniProt P21731); format: functional, cell-based
T1 sequence (P21731 whole entry): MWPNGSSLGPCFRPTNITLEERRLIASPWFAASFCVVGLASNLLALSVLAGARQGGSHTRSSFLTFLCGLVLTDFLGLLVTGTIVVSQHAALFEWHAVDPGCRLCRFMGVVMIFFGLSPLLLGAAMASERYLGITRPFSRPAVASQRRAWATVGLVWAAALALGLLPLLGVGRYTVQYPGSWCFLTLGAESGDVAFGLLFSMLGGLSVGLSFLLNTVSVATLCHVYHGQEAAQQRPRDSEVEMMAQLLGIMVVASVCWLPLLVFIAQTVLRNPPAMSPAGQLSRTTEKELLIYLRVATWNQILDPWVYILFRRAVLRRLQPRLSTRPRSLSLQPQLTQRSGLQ

Prothrombin = Prothrombin (Homo sapiens, UniProt P00734); format: functional
[2] = target: T2, Alpha-2A adrenergic receptor (Homo sapiens, UniProt P08913)
T2 sequence (P08913 whole entry): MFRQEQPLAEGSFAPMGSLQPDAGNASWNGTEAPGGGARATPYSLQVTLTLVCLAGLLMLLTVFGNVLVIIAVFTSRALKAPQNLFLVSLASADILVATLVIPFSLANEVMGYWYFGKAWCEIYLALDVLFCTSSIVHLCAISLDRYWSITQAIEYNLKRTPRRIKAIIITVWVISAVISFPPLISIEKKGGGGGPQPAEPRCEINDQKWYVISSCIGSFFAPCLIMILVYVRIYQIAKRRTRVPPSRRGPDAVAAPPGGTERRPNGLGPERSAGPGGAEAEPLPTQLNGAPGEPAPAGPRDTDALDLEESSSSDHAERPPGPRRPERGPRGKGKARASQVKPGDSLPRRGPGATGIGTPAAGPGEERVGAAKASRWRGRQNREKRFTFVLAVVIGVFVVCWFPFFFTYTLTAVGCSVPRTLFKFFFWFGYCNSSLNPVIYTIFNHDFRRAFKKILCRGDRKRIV

Histamine H3 receptor [3] = target: T3, Histamine H3 receptor (Homo sapiens, UniProt Q9Y5N1)
T3 sequence (Q9Y5N1 whole entry): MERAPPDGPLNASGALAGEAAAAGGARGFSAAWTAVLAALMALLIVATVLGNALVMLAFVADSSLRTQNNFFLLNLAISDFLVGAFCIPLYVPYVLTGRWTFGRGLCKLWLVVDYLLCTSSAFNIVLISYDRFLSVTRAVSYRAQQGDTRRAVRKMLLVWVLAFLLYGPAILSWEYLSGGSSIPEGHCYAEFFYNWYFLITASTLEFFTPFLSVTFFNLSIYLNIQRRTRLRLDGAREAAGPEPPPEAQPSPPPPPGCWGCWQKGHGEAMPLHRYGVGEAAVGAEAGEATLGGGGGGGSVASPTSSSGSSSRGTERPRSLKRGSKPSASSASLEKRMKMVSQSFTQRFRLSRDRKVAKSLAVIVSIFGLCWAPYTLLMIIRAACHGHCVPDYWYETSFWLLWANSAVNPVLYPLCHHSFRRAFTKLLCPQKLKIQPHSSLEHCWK

Thromboxane A2 receptor [4] = target: T1, Thromboxane A2 receptor; format: functional, cell-based; remark: listed apart in the source
[5] = target: T4, Alpha-1A adrenergic receptor (Homo sapiens, UniProt P35348); format: functional, cell-based
T4 sequence (P35348 whole entry): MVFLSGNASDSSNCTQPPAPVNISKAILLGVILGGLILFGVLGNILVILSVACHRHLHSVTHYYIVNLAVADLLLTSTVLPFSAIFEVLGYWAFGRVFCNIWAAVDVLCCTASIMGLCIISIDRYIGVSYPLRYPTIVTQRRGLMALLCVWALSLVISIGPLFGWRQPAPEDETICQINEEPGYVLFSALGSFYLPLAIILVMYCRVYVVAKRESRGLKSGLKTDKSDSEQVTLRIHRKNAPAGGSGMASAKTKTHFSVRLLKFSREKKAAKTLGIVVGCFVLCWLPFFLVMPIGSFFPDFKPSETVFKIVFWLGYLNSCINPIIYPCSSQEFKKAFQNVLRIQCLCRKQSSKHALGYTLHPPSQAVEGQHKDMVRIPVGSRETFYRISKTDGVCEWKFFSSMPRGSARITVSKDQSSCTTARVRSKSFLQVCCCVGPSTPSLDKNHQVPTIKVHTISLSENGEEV

[6] = target: T4, Alpha-1A adrenergic receptor; format: functional, cell-based; remark: listed apart in the source
[7] = target: Sodium-dependent serotonin transporter (Homo sapiens, UniProt P31645)
Chain of Sodium-dependent serotonin transporter (P31645 whole entry): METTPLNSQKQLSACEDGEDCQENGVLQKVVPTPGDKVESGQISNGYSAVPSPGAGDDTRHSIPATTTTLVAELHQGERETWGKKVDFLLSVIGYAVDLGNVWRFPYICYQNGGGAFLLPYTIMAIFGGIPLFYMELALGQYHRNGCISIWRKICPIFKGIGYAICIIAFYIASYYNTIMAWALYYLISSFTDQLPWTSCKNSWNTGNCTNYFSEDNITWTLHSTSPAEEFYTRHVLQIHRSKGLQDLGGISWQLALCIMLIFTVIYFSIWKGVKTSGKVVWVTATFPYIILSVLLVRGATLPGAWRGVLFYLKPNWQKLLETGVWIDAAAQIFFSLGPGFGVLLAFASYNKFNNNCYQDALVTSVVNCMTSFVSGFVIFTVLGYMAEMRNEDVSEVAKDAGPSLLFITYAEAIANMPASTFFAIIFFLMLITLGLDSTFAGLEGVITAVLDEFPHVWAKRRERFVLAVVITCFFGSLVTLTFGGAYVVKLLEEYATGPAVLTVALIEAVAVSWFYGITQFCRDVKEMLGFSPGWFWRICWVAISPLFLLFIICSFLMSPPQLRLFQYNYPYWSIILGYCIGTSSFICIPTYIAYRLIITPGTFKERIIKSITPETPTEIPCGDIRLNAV

[8] = target: 3',5'-cyclic-AMP phosphodiesterase 4A (Homo sapiens, UniProt P27815); format: functional
Chain of 3',5'-cyclic-AMP phosphodiesterase 4A (P27815 whole entry): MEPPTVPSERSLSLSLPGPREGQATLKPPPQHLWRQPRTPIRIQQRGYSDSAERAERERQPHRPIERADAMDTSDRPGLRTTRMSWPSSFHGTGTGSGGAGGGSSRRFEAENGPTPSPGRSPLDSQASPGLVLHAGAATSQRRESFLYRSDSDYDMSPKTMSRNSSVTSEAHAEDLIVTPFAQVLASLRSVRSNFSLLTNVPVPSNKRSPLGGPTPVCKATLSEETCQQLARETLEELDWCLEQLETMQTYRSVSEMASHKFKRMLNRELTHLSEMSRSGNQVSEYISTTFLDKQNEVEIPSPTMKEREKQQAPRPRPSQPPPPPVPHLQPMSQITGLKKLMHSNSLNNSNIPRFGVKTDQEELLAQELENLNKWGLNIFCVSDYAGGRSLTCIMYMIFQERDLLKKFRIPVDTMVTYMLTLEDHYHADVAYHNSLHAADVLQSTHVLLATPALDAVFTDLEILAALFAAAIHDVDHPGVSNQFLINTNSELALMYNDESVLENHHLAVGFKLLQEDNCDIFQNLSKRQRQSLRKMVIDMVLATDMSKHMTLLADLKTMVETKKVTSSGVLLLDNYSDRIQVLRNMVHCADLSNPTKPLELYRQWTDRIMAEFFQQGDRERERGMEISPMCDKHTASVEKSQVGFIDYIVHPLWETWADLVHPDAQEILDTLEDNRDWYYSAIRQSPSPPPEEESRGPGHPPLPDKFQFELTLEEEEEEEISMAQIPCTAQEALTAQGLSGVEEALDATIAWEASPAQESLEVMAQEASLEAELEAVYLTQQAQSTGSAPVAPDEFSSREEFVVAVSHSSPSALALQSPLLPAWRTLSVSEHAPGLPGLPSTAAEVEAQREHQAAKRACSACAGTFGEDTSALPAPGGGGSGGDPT

Mu-type opioid receptor = Mu-type opioid receptor (Homo sapiens, UniProt P35372)
Chain of Mu-type opioid receptor (P35372 whole entry): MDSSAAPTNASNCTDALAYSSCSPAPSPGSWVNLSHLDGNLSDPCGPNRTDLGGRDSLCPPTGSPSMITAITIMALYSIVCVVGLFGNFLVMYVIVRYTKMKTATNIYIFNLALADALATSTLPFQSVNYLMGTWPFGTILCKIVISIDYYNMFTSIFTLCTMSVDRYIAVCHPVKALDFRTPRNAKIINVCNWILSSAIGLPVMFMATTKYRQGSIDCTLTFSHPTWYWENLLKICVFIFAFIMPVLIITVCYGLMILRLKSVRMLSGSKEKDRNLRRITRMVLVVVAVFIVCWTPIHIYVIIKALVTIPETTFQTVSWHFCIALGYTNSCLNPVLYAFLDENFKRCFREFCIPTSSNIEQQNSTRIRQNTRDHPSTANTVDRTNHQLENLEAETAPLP

Histamine H3 receptor [9] = target: T3, Histamine H3 receptor; remark: listed apart in the source
Thromboxane A2 receptor [10] = target: T1, Thromboxane A2 receptor
[11] = target: T5, 5-hydroxytryptamine receptor 2A (Homo sapiens, UniProt P28223); format: functional, cell-based
T5 sequence (P28223 whole entry): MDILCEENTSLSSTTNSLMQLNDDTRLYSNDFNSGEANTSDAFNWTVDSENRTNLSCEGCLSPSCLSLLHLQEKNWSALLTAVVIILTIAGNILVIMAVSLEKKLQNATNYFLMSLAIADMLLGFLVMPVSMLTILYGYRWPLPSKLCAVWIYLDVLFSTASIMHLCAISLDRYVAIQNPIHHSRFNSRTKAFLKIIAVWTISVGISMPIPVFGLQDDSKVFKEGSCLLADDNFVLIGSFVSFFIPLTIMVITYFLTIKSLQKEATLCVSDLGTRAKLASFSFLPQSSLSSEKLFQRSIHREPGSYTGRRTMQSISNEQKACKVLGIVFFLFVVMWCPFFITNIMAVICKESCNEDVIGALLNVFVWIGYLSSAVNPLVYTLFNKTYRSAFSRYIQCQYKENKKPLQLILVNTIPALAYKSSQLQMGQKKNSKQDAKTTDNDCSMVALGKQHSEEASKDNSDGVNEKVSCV

[12] = target: Gamma-aminobutyric acid receptor subunit alpha-1 (Rattus norvegicus, UniProt P62813)
Chain of Gamma-aminobutyric acid receptor subunit alpha-1 (P62813 whole entry): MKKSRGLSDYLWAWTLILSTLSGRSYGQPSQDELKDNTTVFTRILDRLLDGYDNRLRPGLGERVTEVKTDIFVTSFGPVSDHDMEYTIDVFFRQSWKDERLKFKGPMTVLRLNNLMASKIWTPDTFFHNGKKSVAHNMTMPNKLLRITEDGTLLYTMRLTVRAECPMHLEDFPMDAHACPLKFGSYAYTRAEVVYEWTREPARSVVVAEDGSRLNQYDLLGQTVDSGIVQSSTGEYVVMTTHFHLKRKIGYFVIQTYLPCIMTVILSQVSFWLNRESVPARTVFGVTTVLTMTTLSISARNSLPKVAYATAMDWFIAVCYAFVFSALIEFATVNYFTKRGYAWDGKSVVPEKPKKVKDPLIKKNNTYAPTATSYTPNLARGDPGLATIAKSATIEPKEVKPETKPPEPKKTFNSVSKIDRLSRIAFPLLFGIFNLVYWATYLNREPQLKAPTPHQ

Vasopressin V2 receptor = Vasopressin V2 receptor (Homo sapiens, UniProt P30518)
Chain of Vasopressin V2 receptor (P30518 whole entry): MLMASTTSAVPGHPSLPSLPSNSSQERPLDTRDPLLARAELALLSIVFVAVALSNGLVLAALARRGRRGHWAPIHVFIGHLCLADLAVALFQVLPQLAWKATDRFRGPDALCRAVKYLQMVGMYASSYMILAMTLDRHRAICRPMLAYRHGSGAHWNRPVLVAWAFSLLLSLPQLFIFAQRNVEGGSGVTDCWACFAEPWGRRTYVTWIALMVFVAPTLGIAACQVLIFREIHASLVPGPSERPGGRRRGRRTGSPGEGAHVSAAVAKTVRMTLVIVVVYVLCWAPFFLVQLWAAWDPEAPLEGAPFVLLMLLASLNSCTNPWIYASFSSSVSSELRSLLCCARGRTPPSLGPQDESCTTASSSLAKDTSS

[13] = target: T6, Muscarinic acetylcholine receptor M1 (Homo sapiens, UniProt P11229); format: functional
T6 sequence (P11229 whole entry): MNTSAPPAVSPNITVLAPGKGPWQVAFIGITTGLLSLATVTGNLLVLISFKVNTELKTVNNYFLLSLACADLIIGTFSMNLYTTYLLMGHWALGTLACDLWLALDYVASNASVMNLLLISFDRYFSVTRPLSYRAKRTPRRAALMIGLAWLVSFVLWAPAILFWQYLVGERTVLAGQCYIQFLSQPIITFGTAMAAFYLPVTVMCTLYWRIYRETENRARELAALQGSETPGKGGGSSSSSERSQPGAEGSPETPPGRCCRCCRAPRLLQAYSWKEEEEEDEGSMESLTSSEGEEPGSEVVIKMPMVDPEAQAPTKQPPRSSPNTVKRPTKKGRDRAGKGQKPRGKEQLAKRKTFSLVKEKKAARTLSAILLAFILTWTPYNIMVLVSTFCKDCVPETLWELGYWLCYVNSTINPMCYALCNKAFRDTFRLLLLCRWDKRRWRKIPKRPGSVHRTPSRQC

[14] = target: T5, 5-hydroxytryptamine receptor 2A; format: functional, cell-based; remark: listed apart in the source
[15] = target: 5-hydroxytryptamine receptor 2B (Homo sapiens, UniProt P41595); format: functional, cell-based
Chain of 5-hydroxytryptamine receptor 2B (P41595 whole entry): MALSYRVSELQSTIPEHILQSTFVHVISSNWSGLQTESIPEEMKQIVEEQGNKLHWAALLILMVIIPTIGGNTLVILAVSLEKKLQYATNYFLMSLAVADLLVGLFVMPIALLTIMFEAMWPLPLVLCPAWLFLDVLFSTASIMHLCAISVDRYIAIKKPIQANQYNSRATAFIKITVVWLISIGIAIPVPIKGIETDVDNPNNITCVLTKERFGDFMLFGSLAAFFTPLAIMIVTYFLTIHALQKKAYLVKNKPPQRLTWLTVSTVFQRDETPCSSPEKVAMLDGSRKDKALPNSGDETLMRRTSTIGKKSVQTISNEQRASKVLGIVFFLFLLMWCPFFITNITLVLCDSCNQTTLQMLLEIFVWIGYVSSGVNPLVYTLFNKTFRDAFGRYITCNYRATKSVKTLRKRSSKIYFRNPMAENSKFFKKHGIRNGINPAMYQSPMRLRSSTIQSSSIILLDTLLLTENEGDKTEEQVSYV

[16] = target: T4, Alpha-1A adrenergic receptor; format: functional, cell-based; remark: listed apart in the source
[17] = target: Voltage-dependent L-type calcium channel subunit alpha-1C (Rattus norvegicus, UniProt P22002); format: functional
Further: assay procedure not described here.

Chain of D(1A) dopamine receptor (P21728 whole entry): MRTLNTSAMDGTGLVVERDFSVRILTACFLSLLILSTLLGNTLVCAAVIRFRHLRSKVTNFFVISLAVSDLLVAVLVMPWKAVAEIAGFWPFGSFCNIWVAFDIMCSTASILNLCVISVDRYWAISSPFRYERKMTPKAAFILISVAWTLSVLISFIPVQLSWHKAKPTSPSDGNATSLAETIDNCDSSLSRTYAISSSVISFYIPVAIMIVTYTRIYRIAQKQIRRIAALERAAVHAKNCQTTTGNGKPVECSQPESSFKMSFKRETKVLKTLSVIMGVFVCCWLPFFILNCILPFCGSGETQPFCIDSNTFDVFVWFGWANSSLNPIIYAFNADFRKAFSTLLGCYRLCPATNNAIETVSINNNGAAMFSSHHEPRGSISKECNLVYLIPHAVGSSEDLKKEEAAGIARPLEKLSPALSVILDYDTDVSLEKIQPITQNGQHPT

| SMILES | AC50 (D(1A) dopamine receptor) [µM] | AC50 (Thromboxane A2 receptor [1]) [µM] | AC50 (Prothrombin) [µM] | AC50 [2] [µM] | AC50 (Histamine H3 receptor [3]) [µM] | AC50 (Thromboxane A2 receptor [4]) [µM] | AC50 [5] [µM] | AC50 [6] [µM] | AC50 [7] [µM] | AC50 [8] [µM] | AC50 (Mu-type opioid receptor) [µM] | further results |
| --- | --- | --- | --- | --- | --- | --- | --- | --- | --- | --- | --- | --- |
| CN(C)S(=O)(=O)c1ccc2c(c1)N(CCCN1CCC(CCO)CC1)c1ccccc1S2 [PIPOTIAZINE] | 0.0201 | 15.7 | > 30 | 0.313 | > 30 | > 30 | 0.0032 | > 30 | > 30 | > 30 | 3.4 |  |
| N[C@H](C(=O)O)[C@H](O)c1ccc(O)c(O)c1 [DROXIDOPA] | > 30 | > 30 | > 30 | > 30 | > 30 | > 30 |  | 10.4 | > 30 | > 30 | > 30 |  |
| CCCCCCOc1nsnc1C1=CCCN(C)C1 [XANOMELINE] | 1.22 | > 30 | > 30 | 1.39 | 3.6 | > 30 |  | 13.2 | 18.5 | 28.5 | > 30 |  |
| O=C(O)c1cc(O)ccc1O [GENTISIC ACID] | > 30 | > 30 | > 30 | > 30 | > 30 | > 30 | > 30 | > 30 | > 30 | > 30 | > 30 |  |
| CC(C)Nc1ncccn1 [ISAXONINE] | > 30 | > 30 | > 30 | > 30 | > 30 | > 30 | > 30 | > 30 | > 30 | > 30 | > 30 |  |
| CN(C)CCN1C(=O)c2ccccc2N(C)c2ccccc21 [DIBENZEPIN] | 14.3 | > 30 | > 30 | 9.47 | > 30 | > 30 |  | 22.5 | 1.32 | > 30 | 28.8 |  |
| CCOC(=O)[C@H](CCc1ccccc1)N[C@@H](C)C(=O)N1[C@H](C(=O)O)C[C@H]2CCCC[C@@H]21 [TRANDOLAPRIL] | > 30 | > 30 | > 30 | > 30 | > 30 | > 30 | > 30 | > 30 | > 30 | > 30 | > 30 |  |
| CC(=O)NCCCS(=O)(=O)O [ACAMPROSATE] |  |  |  |  |  |  |  |  |  |  |  | AC50 (Histamine H3 receptor [9]): > 30 µM; AC50 (Thromboxane A2 receptor [10]): > 30 µM; AC50 [11]: > 30 µM; AC50 [12]: > 30 µM; AC50 (Vasopressin V2 receptor): > 30 µM; AC50 [13]: > 30 µM; AC50 [14]: > 30 µM; AC50 [15]: > 30 µM; AC50 [16]: > 30 µM |
| Cc1c(C(=O)NN2CCCCC2)nn(-c2ccc(Cl)cc2Cl)c1-c1ccc(Cl)cc1 [RIMONABANT] |  |  |  |  |  |  |  |  |  |  |  | AC50 (Histamine H3 receptor [9]): > 30 µM; AC50 (Thromboxane A2 receptor [10]): 18.6 µM; AC50 [11]: > 30 µM; AC50 [12]: > 10 µM; AC50 (Vasopressin V2 receptor): > 30 µM; AC50 [13]: > 30 µM; AC50 [17]: 3.19 µM; AC50 [14]: 3.7 µM; AC50 [15]: 14 µM; AC50 [16]: > 30 µM |
